According to article PMC3716995, “A phase I study of ridaforolimus in adult Chinese patients with advanced solid tumors” (Journal of Hematology & Oncology, 2013):
Values joined by “and” are separate entries in the source; they are usually repeats but may differ in a detail not shown here. Equal entries are not always repeated. Where two headings read alike, the source gives them in different places. Marks after values point to notes of the source that are not given here.

Key:
[1] = Whole blood pharmacokinetics of oral ridaforolimus 40 mg in Chinese patients (HPLC-MS/MS, WinNonlin); format: in vivo; conditions: for AUC(0-t): read-out: AUC0-24; for concentration at 24 h: read-out: C24hr
Procedure: (§1) The eligible patients were given the following treatment regimen: a single oral dose of 40 mg of ridaforolimus on Day 1; and then, the treatment started from Day 8 with an oral dose of 40 mg of ridaforolimus for five consecutive days (on Day 8 through Day 12) followed by two day's off (Day 13 and 14). The treatment repeated every 7 days. Four treatment weeks was considered one treatment cycle. Sample blood for PK analysis were collected at the following times: on Day 1 prior to drug administration and for 168 h post-dose (at 1, 2, 3, 4, 6, 8, 24, 72, 96, and 168 h post-treatment); on Day 8 and Day 15 prior to drug administration; on Day 19 prior to drug administration and for 24 h post-dose (at 1, 2, 3, 4, 6, 8 and 24 h post-treatment). We monitored patients’ vital signs and conducted laboratory and physical examinations on trial Day 1, 8 and 19.
Ridaforolimus concentration in both whole blood and plasma was analyzed using high-performance liquid chromatography with tandem mass spectrometric detection set at a lower limit of quantification of 0.2 ng/mL (Wuxi AppTec, Shanghai, China). Pharmacokinetic analyses were performed with WinNonlin, version 5.2.1 (Pharsight Corp., St. Louis, MO, USA). AUC0-∞, AUC0-24hr, C24hr, and Cmax were determined for each patient on Day 1 and on Day 19, if applicable, and the geometric means as well as the 95% CI were calculated. The accumulation of ridaforolimus was assessed for Cmax and for AUC0-24hr (geometric mean ratio Day 19 / Day 1 and 90% CI).

[2] = system: treatment-refractory advanced or relapsed solid tumors; assay: Tumor response (RECIST 1.1) in Chinese patients; format: in vivo
Procedure: (§2) The patients continued to receive 40 mg of ridaforolimus for five consecutive days followed by two day's off until disease progression or intolerability. Averse events were monitored every four weeks and AEs were graded according to the Common Terminology Criteria for Adverse Events version 4.0. We also monitored patients’ vital signs and conducted laboratory and physical examinations every four weeks. Radiographic studies for disease assessment were conducted at baseline and again after every two treatment cycles (thus, every eight weeks). Tumor responses were assessed according to the Response Evaluation Criteria for Solid Tumors 1.1 guidelines. We conducted a full safety assessment in all patients four weeks after the administration of the last treatment dose.

[3] = parameters: method as in PMID 22143378; conditions: Japanese patients, cited from earlier work
[4] = parameters: method as in PMID 18202410, PMID 19228743, PMID 22143378; conditions: Caucasians and Japanese patients, cited from earlier work
[5] = parameters: method as in internal PK data; conditions: Caucasian patients, ref internal PK data, cited from earlier work
[6] = system: advanced sarcoma; parameters: method as in earlier work; conditions: maintenance therapy, cited from earlier work
[7] = Safety and tolerability (adverse events, CTCAE v4.0) of oral ridaforolimus 40 mg in Chinese patients; format: in vivo
Procedure: as §1, §2

[8] = Day 1, single oral dose 40 mg, whole blood, median
[9] = human, whole blood, po, 40 mg, Day 1, single oral dose 40 mg, whole blood, geometric mean
[10] = single dose, geometric mean (95% CI)
[11] = Grade 3 non-serious adverse event
[12] = Grade 4 non-serious adverse event
[13] = N = 15, not considered drug-related by the investigator
[14] = non-serious adverse event, all grades, N = 15

## CO[C@H]1C[C@@H]2CC[C@@H](C)[C@@](O)(O2)C(=O)C(=O)N2CCCC[C@H]2C(=O)O[C@H]([C@H](C)C[C@@H]2CC[C@@H](OP(C)(C)=O)[C@H](OC)C2)CC(=O)[C@H](C)/C=C(\C)[C@@H](O)[C@@H](OC)C(=O)[C@H](C)C[C@H](C)/C=C/C=C/C=C/1C [ridaforolimus, Ridaforolimus]
[1]; AUC0-24hr at steady state lower than AUC0-∞ after single dose
  Linearity of blood PKs: non-linear
[1]; Day 1, single oral dose 40 mg, whole blood, harmonic mean
  Apparent t1/2 (elimination half-life): 52.9 h
[1]; [8]
  Tlag (absorption lag time): 2 h and 2.00 h
  Tmax: 4.03 h
[1]; human, in vivo, po
  Absorption after oral administration: slowly absorbed
[1]; [9]
  AUC(0-t): 1850 ng·h/mL
  concentration at 24 h: 34.8 ng/mL
[1]; human, whole blood, po, 40 mg, Day 1, single oral dose 40 mg, whole blood, geometric mean, read-out: Cmax
  Cmax: 210 ng/mL
[1]; human, whole blood, po, 40 mg, Day 1, single oral dose 40 mg, whole blood, harmonic mean, read-out: Apparent t1/2 (elimination half-life) (converted)
  half-life: 53 h
[1]; human, whole blood, po, 40 mg, Day 1, single oral dose 40 mg, whole blood, median, read-out: Tmax
  Tmax: 4 h
[1]; human, whole blood, po, 40 mg, Day 1, single oral dose 40 mg, read-out: Cmax, median value
  Cmax: 192 ng/mL
[1]; human, whole blood, po, 40 mg, Day 19, multiple once daily oral 40 mg (steady state), whole blood, geometric mean
  AUC(0-t): 2010 ng·h/mL
[1]; human, whole blood, po, 40 mg, Day 19, multiple once daily oral 40 mg, whole blood, geometric mean
  concentration at 24 h: 49.7 ng/mL
[1]; human, whole blood, po, 40 mg, Day 19, multiple once daily oral 40 mg, whole blood, geometric mean, read-out: Cmax
  Cmax: 167 ng/mL
[1]; human, whole blood, po, 40 mg, Day 19, multiple once daily oral 40 mg, whole blood, median, read-out: Tmax
  Tmax: 4 h
[1]; human, whole blood, po, 40 mg, Day 19, multiple once daily oral 40 mg, read-out: Cmax, median value
  Cmax: 203 ng/mL
[1]; human, Day 1, single oral dose 40 mg, whole blood, geometric mean
  AUC(0-inf): 3650 ng·h/mL
[2]; N = 15
  Patients who discontinued treatment because of progressive disease: Eight
[2]; RECIST 1.1
  Partial or complete responses: absence of partial or complete responses
[3]; multiple dose
  AUC0-24: 2,120 (1,320, 3,410) ng.hr/ml
  Cmax: 188 (116, 306) ng/ml
  Tmax: 4.04 (4.00, 8.15) hr
[3]; [10]
  AUC0-24: 1,470 (914, 2,360) ng.hr/ml
  Cmax: 187 (115, 304) ng/ml
[3]; single dose, harmonic mean (jack-knife SD)
  t1/2: 55.8 (50.95, 60.65)^c hr
[3]; single dose, median (min, max)
  Tmax: 4.00 (4.00, 8.00) hr
[3]; geometric mean ratio (90% CI)
  Accumulation ratio AUC0-24: 1.44 (1.05, 1.99)
  Accumulation ratio Cmax: 1.01 (0.674, 1.50)
[4]; oral 40mg per day for five consecutive days followed by two day's off
  Tolerability: well tolerated
[4]; oral ridaforolimus
  Most important dose limiting toxicity: stomatitis
[5]; multiple dose
  AUC0-24: 1882(1630, 2180) ng.hr/ml
  Cmax: 160(136, 188) ng/ml
[5]; [10]
  AUC0-24: 992(801, 1230) ng.hr/ml
  Cmax: 112(84.6, 148) ng/ml
[5]; single dose, harmonic mean (pseudo SD)
  t1/2: 42.0(17.7)^d hr
[5]; single dose, median (min, max)
  Tmax: 2.79(1.42, 9.78) hr
[5]; geometric mean ratio (90% CI)
  Accumulation ratio AUC0-24: 1.90(1.63, 2.21)
  Accumulation ratio Cmax: 1.43(1.22, 1.68)
[6]; vs 14.6 weeks for placebo, P = 0.0001
  Median PFS: 17.7 weeks
[6]; vs 83.4 weeks for placebo, P = 0.23
  Median overall survival at data cut-off (386 deaths): 93.3 weeks
[7]; [11]
  Anaemia Grade 3, number of patients: 2/15
  Anaemia Grade 3, percentage of patients: 13.3%
  Constipation Grade 3, number of patients: 1/15
  Constipation Grade 3, percentage of patients: 6.7%
  Fatigue Grade 3, number of patients: 2/15
  Fatigue Grade 3, percentage of patients: 13.3%
  Gamma-glutamyltransferase increase Grade 3, number of patients: 1/15
  Gamma-glutamyltransferase increase Grade 3, percentage of patients: 6.7%
  Platelet count decrease Grade 3, number of patients: 1/15
  Platelet count decrease Grade 3, percentage of patients: 6.7%
  Proteinuria Grade 3, number of patients: 1/15
  Proteinuria Grade 3, percentage of patients: 6.7%
  Stomatitis Grade 3, number of patients: 2/15
  Stomatitis Grade 3, percentage of patients: 13.3%
[7]; [12]
  Anaemia Grade 4, number of patients: 1/15
  Anaemia Grade 4, percentage of patients: 6.7%
  Platelet count decrease Grade 4, number of patients: 1/15
  Platelet count decrease Grade 4, percentage of patients: 6.7%
[7]; N = 15
  Patients who discontinued as a result of drug-related fatigue: one
  Patients who discontinued as a result of drug-related interstitial lung disease: three
  Patients who discontinued as a result of drug-related stomatitis: one
  Patients who discontinued due to drug-related AEs: five
  Patients who discontinued treatment as a result of AEs: six
[7]; [13]
  Patients who developed serious AEs, number: Four
  Patients who developed serious AEs, percentage: 26.7%
[7]; all recovered after interruption and glucocorticoids
  Patients who developed Grade 2 interstitial pneumonitis: Three
[7]; fifteen patients
  Non-serious AEs considered Grade 3: 11
  Non-serious AEs considered Grade 4: 2
  Non-serious AEs deemed by the investigator as drug related: 111
  Total number of non-serious AEs reported: 135
[7]; human, in vivo
  Grade 3/4 drug-related AEs: anemia, stomatitis, fatigue, thrombocytopenia, constipation, gamma glutamyltransferase increase, and proteinuria
  Most common drug-related adverse events (occurred in ≥40% of patients): stomatitis, proteinuria, leukopenia, hyperglycemia, and pyrexia
[7]; [14]
  ALT increase, number of patients: 3
  ALT increase, percentage of patients: 20%
  Anemia, number of patients: 5
  Anemia, percentage of patients: 33.3%
  Blood alkaline phosphatase increased, number of patients: 4
  Blood alkaline phosphatase increased, percentage of patients: 26.7%
  Blood cholesterol increased, number of patients: 5
  Blood cholesterol increased, percentage of patients: 33.3%
  Fatigue, number of patients: 4
  Fatigue, percentage of patients: 26.7%
  Gamma-glutamyltransferase increased, number of patients: 6
  Gamma-glutamyltransferase increased, percentage of patients: 40%
  Hyperglycaemia, number of patients: 7
  Hyperglycaemia, percentage of patients: 46.7%
  Hypoalbuminaemia, number of patients: 5
  Hypoalbuminaemia, percentage of patients: 33.3%
  Interstitial lung disease, number of patients: 3
  Interstitial lung disease, percentage of patients: 20%
  Platelet count decrease, number of patients: 5
  Platelet count decrease, percentage of patients: 33.3%
  Proteinuria, number of patients: 11
  Proteinuria, percentage of patients: 73.3%
  Pyrexia, number of patients: 6
  Pyrexia, percentage of patients: 40%
  Stomatitis, number of patients: 12
  Stomatitis, percentage of patients: 80%
  White blood cell count decrease, number of patients: 8
  White blood cell count decrease, percentage of patients: 53.3%
[7]; once a day oral dose of 40 mg, Chinese patients
  Tolerability: generally well tolerated
[7]; summary statistics, an elevation from baseline was observed
  Changes from baseline over time in serum cholesterol, serum glucose, serum triglycerides: no clinically significant elevations
